This note sets out measurements from patent US12649750B2, “Macrocyclic compounds, compositions, and methods of using thereof” (Sionna Therapeutics Inc., priority 2022, dated 2026).

Assay [1] has as its target T1, CFTR (Homo sapiens, UniProt P13569, DEL508-508).
T1 construct: Primary human bronchial epithelial cells from a ΔF508 homozygous CF donor; host or cells: primary human bronchial epithelial cells (CF-HBE), ΔF508 homozygous donor
Nature of the assay: TECC24 AUC fold over DMSO @10 μM, CFTR-mediated transepithelial chloride transport in CF-HBE cells. Format: cell-based. As to conditions: test agent AUC divided by DMSO vehicle AUC, primary CF-HBE cells, ΔF508 homozygous donor, 48 hours incubation. The essentials:
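Primary ΔF508-homozygous CF bronchial epithelial cells on inserts were incubated 48 h at 36.5 °C with compound in IL-13-containing medium. VT and TEER were then recorded in current-clamp mode (pH 7.4 HEPES bath) with benzamil 10 μM, forskolin 10 μM, then CFTR inhibitor-172 20 μM. The IEQ AUC between forskolin and inhibitor was divided by vehicle AUC.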

For assay [2], the target named is T2, NBD1 (Homo sapiens, UniProt P13569).
T2 construct: Purified recombinant NBD1 was produced using previously described methods; made in house
Nature of the assay: Aggregation analysis using differential static light scattering (DSLS), thermal stability of NBD1 (ΔTagg). Type of assay: binding. As to conditions: ΔTagg versus DMSO control, NBD1 0.2 mg/ml. The essentials:
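Purified recombinant NBD1 at 0.2 mg/ml in 50 mM Tris-HCl, 150 mM NaCl, 5 mM MgCl2, 2 mM ATP, 2 mM DTT, pH 7.6, 1% glycerol, with compound, heated 1° C./min to 70° C. under light-scattering monitoring. Tagg taken at curve inflection; ΔTagg is compound Tagg minus mean DMSO-control Tagg, binned A (≤5° C.), B (>5-≤10° C.), C (>10-≤25° C.).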

Each structure is given as a SMILES string.

T1 sequence (P13569 with tags, fused parts or gaps DEL508-508): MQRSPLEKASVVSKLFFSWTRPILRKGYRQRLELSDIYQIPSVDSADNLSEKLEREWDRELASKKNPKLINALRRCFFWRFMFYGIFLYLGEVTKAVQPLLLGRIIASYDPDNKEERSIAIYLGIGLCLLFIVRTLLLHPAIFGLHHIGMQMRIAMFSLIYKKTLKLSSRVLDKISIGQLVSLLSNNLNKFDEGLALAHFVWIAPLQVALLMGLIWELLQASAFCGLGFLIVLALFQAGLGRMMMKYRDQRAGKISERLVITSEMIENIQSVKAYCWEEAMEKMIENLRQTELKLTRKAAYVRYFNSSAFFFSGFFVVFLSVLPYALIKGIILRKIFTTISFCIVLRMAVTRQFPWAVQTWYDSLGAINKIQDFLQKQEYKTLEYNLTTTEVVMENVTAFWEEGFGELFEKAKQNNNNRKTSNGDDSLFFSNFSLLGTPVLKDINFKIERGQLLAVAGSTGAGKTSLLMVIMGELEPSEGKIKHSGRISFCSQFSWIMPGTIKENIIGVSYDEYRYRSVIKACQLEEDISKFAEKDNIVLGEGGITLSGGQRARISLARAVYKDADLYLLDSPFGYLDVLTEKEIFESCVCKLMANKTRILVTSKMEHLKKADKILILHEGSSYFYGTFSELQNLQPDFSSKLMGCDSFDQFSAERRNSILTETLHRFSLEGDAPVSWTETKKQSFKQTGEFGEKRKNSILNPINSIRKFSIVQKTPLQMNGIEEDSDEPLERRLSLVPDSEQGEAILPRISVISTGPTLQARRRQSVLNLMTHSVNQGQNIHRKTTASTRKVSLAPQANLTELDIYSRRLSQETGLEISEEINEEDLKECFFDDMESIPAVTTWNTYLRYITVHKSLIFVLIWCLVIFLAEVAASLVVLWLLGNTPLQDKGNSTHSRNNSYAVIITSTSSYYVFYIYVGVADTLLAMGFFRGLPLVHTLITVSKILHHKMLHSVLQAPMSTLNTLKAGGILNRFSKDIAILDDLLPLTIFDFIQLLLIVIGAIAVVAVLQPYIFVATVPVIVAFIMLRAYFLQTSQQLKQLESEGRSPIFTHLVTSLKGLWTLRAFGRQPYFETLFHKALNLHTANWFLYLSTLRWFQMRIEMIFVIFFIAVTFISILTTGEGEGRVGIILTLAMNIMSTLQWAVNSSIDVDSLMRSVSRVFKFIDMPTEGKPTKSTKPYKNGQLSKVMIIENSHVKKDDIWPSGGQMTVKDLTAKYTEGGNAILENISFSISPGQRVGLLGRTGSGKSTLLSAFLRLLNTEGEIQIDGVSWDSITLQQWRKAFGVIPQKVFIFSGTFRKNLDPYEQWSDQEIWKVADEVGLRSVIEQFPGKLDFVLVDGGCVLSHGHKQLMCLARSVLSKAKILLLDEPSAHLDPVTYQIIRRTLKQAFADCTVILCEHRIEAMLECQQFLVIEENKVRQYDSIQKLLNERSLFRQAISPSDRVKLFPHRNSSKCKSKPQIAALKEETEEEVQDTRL
T2 sequence (P13569 423-646 limits assumed): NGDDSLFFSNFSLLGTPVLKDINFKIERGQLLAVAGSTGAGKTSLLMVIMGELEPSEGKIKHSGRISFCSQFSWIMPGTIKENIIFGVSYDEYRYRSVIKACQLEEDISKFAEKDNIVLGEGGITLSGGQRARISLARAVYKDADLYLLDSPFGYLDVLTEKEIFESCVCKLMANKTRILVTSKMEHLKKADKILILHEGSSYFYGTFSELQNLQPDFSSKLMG

With `COCC(Cc1cccc(C2(C)CCCC(C)(C)CS(=O)(=O)CCc3c(c(F)cc4[nH]ccc34)Oc3ccc(F)c(c3)-c3nc2nn3C)c1)C(=O)O` (single isomer, unassigned) [Compound 153A, 2-[[3-(22,28-difluoro-3,6,10,10-tetramethyl-12,12-dioxo-24-oxa-12λ6-thia-3,4,19,30-tetrazapentacyclo[23.3.1.12,5.015,23.016,20]triaconta-1(29),2(30),4,15,17,20,22,25,27-nonaen-6-yl)phenyl]methyl]-3-methoxy-propanoic Acid], the “TECC (AUC, 10 μM)” value in assay [1] is “C (a value between 20 and 80 is marked “C”)”. Further, in assay [2], the “DSLS 3D (100 μM ΔT)” value is “C (a value greater than 10 °C and less than or equal to 25 °C is marked “C”)”.
As for `COCC(Cc1cccc(C2(C)CCCC(C)(C)CS(=O)(=O)CCc3c(c(F)cc4[nH]ccc34)Oc3ccc(F)c(c3)-c3nc2nn3C)c1)C(=O)O` (single isomer, unassigned) [Compound 153B, 2-[[3-(22,28-difluoro-3,6,10,10-tetramethyl-12,12-dioxo-24-oxa-12λ6-thia-3,4,19,30-tetrazapentacyclo[23.3.1.12,5.015,23.016,20]triaconta-1(29),2(30),4,15,17,20,22,25,27-nonaen-6-yl)phenyl]methyl]-3-methoxy-propanoic Acid], the “TECC (AUC, 10 μM)” value in assay [1] was “C (a value between 20 and 80 is marked “C”)”. Also, the “DSLS 3D (100 μM ΔT)” value in assay [2] is “A (an ΔTagg value less than or equal to 5 °C is marked “A”)”.
Turning to `COCC(Cc1cccc(C2(C)CCCC(C)(C)CS(=O)(=O)CCc3c(c(F)cc4[nH]ccc34)Oc3ccc(F)c(c3)-c3nc2nn3C)c1)C(=O)O` (single isomer, unassigned) [Compound 153C, 2-[[3-(22,28-difluoro-3,6,10,10-tetramethyl-12,12-dioxo-24-oxa-12λ6-thia-3,4,19,30-tetrazapentacyclo[23.3.1.12,5.015,23.016,20]triaconta-1(29),2(30),4,15,17,20,22,25,27-nonaen-6-yl)phenyl]methyl]-3-methoxy-propanoic Acid], in assay [1], the “TECC (AUC, 10 μM)” value is “A (a TECC value less than 12 is marked “A”)”. The “DSLS 3D (100 μM ΔT)” value in assay [2] was “A (an ΔTagg value less than or equal to 5 °C is marked “A”)”.
As to `C[C@H](Cc1cccc(C2(C)CCCC(C)(C)CS(=O)(=O)CCc3c(c(F)cc4[nH]ccc34)Oc3ccc(F)c(c3)-c3nc2c[nH]3)c1)C(=O)O` (single isomer, unassigned) [Compound 157A], in assay [1], the “TECC (AUC, 10 μM)” value is given as “A (a TECC value less than 12 is marked “A”)”. The “DSLS 3D (100 μM ΔT)” value in assay [2] is “A (an ΔTagg value less than or equal to 5 °C is marked “A”)”.
In the case of `C[C@H](Cc1cccc(C2(C)CCCC(C)(C)CS(=O)(=O)CCc3c(c(F)cc4[nH]ccc34)Oc3ccc(F)c(c3)-c3nc2c[nH]3)c1)C(=O)O` (single isomer, unassigned) [Compound 157B], in assay [1], the “TECC (AUC, 10 μM)” value is listed as “A (a TECC value less than 12 is marked “A”)”. Also, the “DSLS 3D (100 μM ΔT)” value in assay [2] was “C (a value greater than 10 °C and less than or equal to 25 °C is marked “C”)”.
Regarding `C[C@@H](Cc1cccc(C2(C)CCCC(C)(C)CS(=O)(=O)CCc3c(c(F)cc4[nH]ccc34)Oc3ccc(F)c(c3)-c3nc2nn3C)c1)C(N)=O` (single isomer, unassigned) [Compound 158], the “TECC (AUC, 10 μM)” value in assay [1] is on record as “A (a TECC value less than 12 is marked “A”)”. Also, the “DSLS 3D (100 μM ΔT)” value in assay [2] is “C (a value greater than 10 °C and less than or equal to 25 °C is marked “C”)”.
`COCCOCCOCCOC(=O)[C@@H](C)Cc1cccc(C2(C)CCCC(C)(C)CS(=O)(=O)CCc3c(c(F)cc4[nH]ccc34)Oc3ccc(F)c(c3)-c3nc2nn3C)c1` (single isomer, unassigned) [Compound 165]: in assay [1], the “TECC (AUC, 10 μM)” value is “C (a value between 20 and 80 is marked “C”)”. In assay [2], the “DSLS 3D (100 μM ΔT)” value is “B (a value above 5 °C and less than or equal to 10 °C is marked “B”)”.
As to `C/C(=C\c1cccc(C2(C)CCCC(C)(C)CS(=O)(=O)CCc3c(c(F)cc4[nH]ccc34)Cc3ccc(F)c(c3)-c3nc2nn3C)c1)C(=O)O` (single isomer, unassigned) [Compound 166A, (E)-3-[3-(22,28-difluoro-3,6,10,10-tetramethyl-12,12-dioxo-12λ6-thia-3,4,19,30-tetrazapentacyclo-[23.3.1.12,5.015,23.016,20]triaconta-1(29),2(30),4,15,17,20,22,25,27-nonaen-6-yl)phenyl]-2-methyl-prop-2-enoic Acid], in assay [1], the “TECC (AUC, 10 μM)” value is listed as “B (a value between 12-20 is marked “B”)”. In addition, the “DSLS 3D (100 μM ΔT)” value in assay [2] is “C (a value greater than 10 °C and less than or equal to 25 °C is marked “C”)”.
Consider `C/C(=C\c1cccc(C2(C)CCCC(C)(C)CS(=O)(=O)CCc3c(c(F)cc4[nH]ccc34)Cc3ccc(F)c(c3)-c3nc2nn3C)c1)C(=O)O` (single isomer, unassigned) [Compound 166B, (E)-3-[3-(22,28-difluoro-3,6,10,10-tetramethyl-12,12-dioxo-12λ6-thia-3,4,19,30-tetrazapentacyclo-[23.3.1.12,5.015,23.016,20]triaconta-1(29),2(30),4,15,17,20,22,25,27-nonaen-6-yl)phenyl]-2-methyl-prop-2-enoic Acid], for which the “TECC (AUC, 10 μM)” value in assay [1] was “A (a TECC value less than 12 is marked “A”)”. Further, the “DSLS 3D (100 μM ΔT)” value in assay [2] is “A (an ΔTagg value less than or equal to 5 °C is marked “A”)”.
Regarding `C[C@H](Cc1cccc(C2(C)CCCC(C)(C)CS(=O)(=O)CCc3c(c(F)cc4[nH]ccc34)Cc3ccc(F)c(c3)-c3nc2nn3C)c1)C(=O)O` (single isomer, unassigned) [Compound 169A], the “TECC (AUC, 10 μM)” value in assay [1] is “A (a TECC value less than 12 is marked “A”)”. Moreover, the “DSLS 3D (100 μM ΔT)” value in assay [2] is “C (a value greater than 10 °C and less than or equal to 25 °C is marked “C”)”.
Turning to `C[C@H](Cc1cccc(C2(C)CCCC(C)(C)CS(=O)(=O)CCc3c(c(F)cc4[nH]ccc34)Cc3ccc(F)c(c3)-c3nc2nn3C)c1)C(=O)O` (single isomer, unassigned) [Compound 169B], the “TECC (AUC, 10 μM)” value in assay [1] is recorded as “A (a TECC value less than 12 is marked “A”)”. Also, the “DSLS 3D (100 μM ΔT)” value in assay [2] was “A (an ΔTagg value less than or equal to 5 °C is marked “A”)”.
In the same order, the values of `CC1(C)CCCC(C)(c2cccc(CC3(C(=O)O)CC3)c2)c2c[nH]c(n2)-c2cc(ccc2F)Oc2c(F)cc3[nH]ccc3c2CCS(=O)(=O)C1` (single isomer, unassigned) [Compound 171A, 1-[[3-(22,28-difluoro-6,10,10-trimethyl-12,12-dioxo-24-oxa-12λ6-thia-3,19,30-triazapentacyclo[23.3.1.12,5.015,23.016,20]triaconta-1(29),2(30),4,15,17,20,22,25,27-nonaen-6-yl)phenyl]methyl]cyclopropanecarboxylic Acid] are “A (a TECC value less than 12 is marked “A”)” and “A (an ΔTagg value less than or equal to 5 °C is marked “A”)”.
As to `CC1(C)CCCC(C)(c2cccc(CC3(C(=O)O)CC3)c2)c2c[nH]c(n2)-c2cc(ccc2F)Oc2c(F)cc3[nH]ccc3c2CCS(=O)(=O)C1` (single isomer, unassigned) [Compound 171B, 1-[[3-(22,28-difluoro-6,10,10-trimethyl-12,12-dioxo-24-oxa-12λ6-thia-3,19,30-triazapentacyclo[23.3.1.12,5.015,23.016,20]triaconta-1(29),2(30),4,15,17,20,22,25,27-nonaen-6-yl)phenyl]methyl]cyclopropanecarboxylic Acid], the “TECC (AUC, 10 μM)” value in assay [1] is “A (a TECC value less than 12 is marked “A”)”. In addition, the “DSLS 3D (100 μM ΔT)” value in assay [2] is “C (a value greater than 10 °C and less than or equal to 25 °C is marked “C”)”.
As to `C[C@@H](Cc1cccc(C2(C)CCCC(C)(C)CS(=O)(=O)CCc3c(c(F)cc4[nH]ccc34)[S+]([O-])c3ccc(F)c(c3)-c3nc2nn3C)n1)C(=O)O` (single isomer, unassigned) [Compound 179A], the “TECC (AUC, 10 μM)” value in assay [1] was “A (a TECC value less than 12 is marked “A”)”. Moreover, the “DSLS 3D (100 μM ΔT)” value in assay [2] is “B (a value above 5 °C and less than or equal to 10 °C is marked “B”)”.
On to `C[C@@H](Cc1cccc(C2(C)CCCC(C)(C)CS(=O)(=O)CCc3c(c(F)cc4[nH]ccc34)[S+]([O-])c3ccc(F)c(c3)-c3nc2nn3C)n1)C(=O)O` (single isomer, unassigned) [Compound 179B], for which the “TECC (AUC, 10 μM)” value in assay [1] is “A (a TECC value less than 12 is marked “A”)”. Moreover, the “DSLS 3D (100 μM ΔT)” value in assay [2] is “A (an ΔTagg value less than or equal to 5 °C is marked “A”)”.
Consider `C[C@@H](Cc1cccc(C2(C)CCCC(C)(C)CS(=O)(=O)CCc3c(c(F)cc4[nH]ccc34)[S+]([O-])c3ccc(F)c(c3)-c3nc2nn3C)n1)C(=O)O` (single isomer, unassigned) [Compound 179C], for which the “TECC (AUC, 10 μM)” value in assay [1] is “C (a value between 20 and 80 is marked “C”)”. For the same compound, the “DSLS 3D (100 μM ΔT)” value in assay [2] is “C (a value greater than 10 °C and less than or equal to 25 °C is marked “C”)”.
With `C[C@@H](Cc1cccc(C2(C)CCCC(C)(C)CS(=O)(=O)CCc3c(c(F)cc4[nH]ccc34)[S+]([O-])c3ccc(F)c(c3)-c3nc2nn3C)n1)C(=O)O` (single isomer, unassigned) [Compound 179D], the “TECC (AUC, 10 μM)” value in assay [1] is reported as “A (a TECC value less than 12 is marked “A”)”. Also, the “DSLS 3D (100 μM ΔT)” value in assay [2] is “A (an ΔTagg value less than or equal to 5 °C is marked “A”)”.
